The target in data set [1] is T1, OMA1 protease (Homo sapiens, UniProt Q96E52).
T1 sequence (Q96E52 144-524): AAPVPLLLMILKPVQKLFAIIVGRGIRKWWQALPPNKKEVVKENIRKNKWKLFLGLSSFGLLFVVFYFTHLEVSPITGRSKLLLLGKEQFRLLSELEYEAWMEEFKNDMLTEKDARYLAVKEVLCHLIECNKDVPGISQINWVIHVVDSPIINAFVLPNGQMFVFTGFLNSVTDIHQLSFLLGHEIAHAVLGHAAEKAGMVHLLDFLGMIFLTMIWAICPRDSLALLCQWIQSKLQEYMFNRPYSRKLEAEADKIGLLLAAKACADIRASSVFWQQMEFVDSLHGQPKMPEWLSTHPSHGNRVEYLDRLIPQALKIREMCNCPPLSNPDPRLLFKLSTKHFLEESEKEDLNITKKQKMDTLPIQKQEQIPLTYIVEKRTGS
The data set is described as follows: Reporter hydrolysis in Hek293T reporter cells by Western blot. The class given is cell-based. Also noted: The OMA 1 enzyme is dormant under physiological cell culture conditions in these cells; endogenous in cells. To be noted: for Luke-S1 reporter cleavage in Western blots / Luke-TEV reporter cleavage in Western blots: 3 μM CCCP or 100 nM valinomycin. On the procedure:
For this example, transfected cells were selected by puromycin. […] […] If reporter #15 indeed is cleaved by OMA1, then phenanthroline should prevent this at least to a certain extend by inhibiting OMA1 and accordingly preserving the signal. Hek293T cells were transfected with reporter gene #15 as described in the preceding example. After 24 hours, the transfected cells were incubated with 500 μM phenanthroline in OptiMEM. After 1 hour of pretreatment, CCCP in OptiMEM/phenanthroline was added to a final concentration of 10 μM CCCP and cells incubated for another 30 minutes at 37° C. After 30 minutes, the medium was replaced with furimazine (1:100 in OptiMEM), and bioluminescence measured as described in Example 1.
(§1) OPA1 hydrolysis can be monitored by Western blotting. […] The predicted size of full-length Luke-S1 is 31.8 kDa.

In the next data set the test system is L-OPA1. The data set is described as follows: OPA1 hydrolysis in Hek293T cells by Western blot. The format is cell-based. Particulars: 30 minutes.
From the text: as §1
On the technique in general: A western blot detects proteins with antibodies after separation by electrophoresis.

Data set [2] addresses T1, OMA1 protease. The data set is described as follows: Rep #01 luciferase reporter assay in Hek293T cells. To be noted: for bioluminescence of reporter #01 (mitochondrial toxicity): Hek293T cells exposed 30 minutes. From the text: Example 1 provides a nonlimiting example of generation and use of a reporter of present invention and illustrates its function. To this end, generation and use of reporter gene #01 (SEQ ID NO: 01) and reporter gene #15 (SEQ ID NO: 15) are described and their function compared to each other. The general design of a reporter of present invention is illustrated in FIG. 1A and its working principle in FIG. 1B. A reporter in general, and reporter gene #01 and reporter gene #15 in particular, can be generated as follows. DNA sequences of a reporter may be codon-optimized in silico or by any other way for expression in a suitable host. DNA sequences of reporter genes #01 and #15 were codon-optimized for expression in humans (SEQ ID NO: 02 and SEQ ID NO: 16, respectively). The (optimized) sequences were synthesized and cloned into a pcDNA3.1 expression vector under the control of a CMV promotor (see FIG. 1 for an illustration of such vector). Of course, an expression system and a host should match for best results. The host in this example were Hek293T cells, which were maintained under standard culture conditions in DMEM with 10% Fetal Bovine Serum and 1% Pen/Strep. For an experiment, Hek293T cells were seeded in opaque white tissue-culture treated 96-well plates at 80% confluency and transfected with vectors carrying reporter gene #01 and reporter gene #15 and 24 hours later incubated for 30 minutes at 37° C. in OptiMEM or in OptiMEM with 10 μM CCCP. After 30 minutes, the OptiMEM cell-culture media was replaced with luciferase substrate (furimazine, Promega) diluted 1:100 in OptiMEM, and bioluminescence was measured with a Fluoroskan Ascent FL (Thermo Scientific) using a 517 nm single-pass filter and 200 milliseconds integration time. […]
Example 5 illustrates how mitochondrial toxicity can be measured with reporter and assays of present invention. […] Hek293T cells expressing reporter #01 and #15 were exposed to CCCP, tipranavir and sorafenib (in OptiMEM) for 30 minutes before the medium was replaced with furimazine (1:100), and bioluminescence measured.

Data set [3] concerns the target T1, OMA1 protease. The data set is described as follows: cell-based. From the text: Example 1 provides a nonlimiting example of generation and use of a reporter of present invention and illustrates its function. To this end, generation and use of reporter gene #01 (SEQ ID NO: 01) and reporter gene #15 (SEQ ID NO: 15) are described and their function compared to each other. The general design of a reporter of present invention is illustrated in FIG. 1A and its working principle in FIG. 1B. A reporter in general, and reporter gene #01 and reporter gene #15 in particular, can be generated as follows. DNA sequences of a reporter may be codon-optimized in silico or by any other way for expression in a suitable host. DNA sequences of reporter genes #01 and #15 were codon-optimized for expression in humans (SEQ ID NO: 02 and SEQ ID NO: 16, respectively). The (optimized) sequences were synthesized and cloned into a pcDNA3.1 expression vector under the control of a CMV promotor (see FIG. 1 for an illustration of such vector). Of course, an expression system and a host should match for best results. The host in this example were Hek293T cells, which were maintained under standard culture conditions in DMEM with 10% Fetal Bovine Serum and 1% Pen/Strep. For an experiment, Hek293T cells were seeded in opaque white tissue-culture treated 96-well plates at 80% confluency and transfected with vectors carrying reporter gene #01 and reporter gene #15 and 24 hours later incubated for 30 minutes at 37° C. in OptiMEM or in OptiMEM with 10 μM CCCP. After 30 minutes, the OptiMEM cell-culture media was replaced with luciferase substrate (furimazine, Promega) diluted 1:100 in OptiMEM, and bioluminescence was measured with a Fluoroskan Ascent FL (Thermo Scientific) using a 517 nm single-pass filter and 200 milliseconds integration time. […] Reporter #01 comprises a large part of OPA1's amino-terminus as mitochondrial targeting sequence, which is cleaved by the mitochondrial processing peptidase upon mitochondrial import (see Example 2). Reporter #15 was initially envisioned as a control for reporter #01. Reporter #15 therefore lacks the first 66 amino acids of reporter #01 believed to be essential for mitochondrial import.
Example 5 illustrates how mitochondrial toxicity can be measured with reporter and assays of present invention. The OMA1-OPA1 pathway basically serves as a “canary-in-the-coalmine” for a mitochondrial deterioration. […] Hek293T cells expressing reporter #01 and #15 were exposed to CCCP, tipranavir and sorafenib (in OptiMEM) for 30 minutes before the medium was replaced with furimazine (1:100), and bioluminescence measured.

Data set [4] deals with T1, OMA1 protease. The data set can be described thus: Rep #15 / Luke-S1 assay for OMA1 inhibitors (preincubation with test compound, then OMA1 activator). The format is cell-based. Also noted: The OMA 1 enzyme is dormant under physiological cell culture conditions in these cells; endogenous in cells. To be noted: 500 μM phenanthroline 1 hour, then 10 μM CCCP 30 minutes. The method, then:
Example 2 refers to FIG. 4 and illustrates hydrolysis of reporter #01 and reporter #15. For this example, transfected cells were selected by puromycin. Reporter cells were exposed for 30 minutes to 10 μM CCCP before being harvested in RIPA buffer and subjected to 12% SDS-PAGE followed by Western-blotting. […] Full-length reporter #01 has a predicted size of 39.6 kDa but was not detected in Western blots. […] At the same time, reporter #15 is not processed upon import, but migrated at its expected size of 31.9 kDa. (Example 7 establishes mitochondrial import by showing co-migration of reporter #15 with OPA1 and OMA1 in mitochondria-enriched fractions.) Reporter #15 appears to be more abundant and stable, which may explain its better performance. […] This provides additional evidence that reporter #15 is indeed localized in mitochondria where it is recognized and hydrolyzed by OMA1. […] Therefore, phenanthroline was used as a positive control in the reporter assay. If reporter #15 indeed is cleaved by OMA1, then phenanthroline should prevent this at least to a certain extend by inhibiting OMA1 and accordingly preserving the signal. Hek293T cells were transfected with reporter gene #15 as described in the preceding example. […] After 30 minutes, the medium was replaced with furimazine (1:100 in OptiMEM), and bioluminescence measured as described in Example 1. […]

A further data set addresses T2, NanoLuc luciferase (Oplophorus gracilirostris, UniProt Q9GV45, A31E/A60N/A81I/F95D/I117V/K70R/L54V/L99Q/M102K/N193R/P142E/Q151K/Q38R/Q45L/V71I/Y165I).
T2 construct: expressed in transfected cells; host or cells: 'Luke' cells
The data set is described as follows: Luke (native NanoLuc) control cell assay in Hek293T cells. The class given is cell-based.

For data set [5], the target named is OMA1 protease (Mus musculus, UniProt Q9D8H7). To be noted: Neuro2A cells. The text has this: In this example, the S1-cleavage site of reporter #15 was replaced with a TEV-cleavage site (see also Example 6). Neuro2A cells were transfected with reporter #15-S1 and reporter #15-TEV and selected by puromycin. […] FIG. 7 provides an overview of the arrangement of elements of different reporter genes, which comprise inter alia the amino acid sequences of SEQ ID NO: 01 (Rep #01), SEQ ID NO: 03 (Rep #04), SEQ ID NO: 09 (Rep #08), SEQ ID NO: 13 (Rep #10), and SEQ ID NO: 15 (Rep #15).

For data set [6], the target named is T1, OMA1 protease. The data set can be described thus: Luke-TEV (TEV site instead of S1) reporter assay in Hek293T cells. The class given is cell-based. Set-up: The OMA 1 enzyme is dormant under physiological cell culture conditions in these cells; endogenous in cells. A general note: A reporter such as luciferase makes a cellular process visible.

Entries after “also recorded” stand apart in the source; their conditions may differ. Like-named read-outs stand apart in the source and are kept apart here.

OMA1 protease (Mus musculus, UniProt Q9D8H7), sequence (Q9D8H7 140-521): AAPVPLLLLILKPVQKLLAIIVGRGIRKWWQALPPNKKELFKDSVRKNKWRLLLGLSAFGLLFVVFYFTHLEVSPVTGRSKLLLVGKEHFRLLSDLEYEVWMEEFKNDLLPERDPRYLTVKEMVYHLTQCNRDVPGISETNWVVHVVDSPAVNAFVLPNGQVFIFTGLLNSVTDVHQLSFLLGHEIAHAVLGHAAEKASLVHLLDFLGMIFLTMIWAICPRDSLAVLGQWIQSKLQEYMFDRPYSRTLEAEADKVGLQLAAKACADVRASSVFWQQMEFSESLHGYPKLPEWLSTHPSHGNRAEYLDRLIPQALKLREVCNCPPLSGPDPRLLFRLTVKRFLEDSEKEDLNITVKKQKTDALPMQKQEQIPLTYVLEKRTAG
T2 sequence (Q9GV45 with tags, fused parts or gaps with the stated changes): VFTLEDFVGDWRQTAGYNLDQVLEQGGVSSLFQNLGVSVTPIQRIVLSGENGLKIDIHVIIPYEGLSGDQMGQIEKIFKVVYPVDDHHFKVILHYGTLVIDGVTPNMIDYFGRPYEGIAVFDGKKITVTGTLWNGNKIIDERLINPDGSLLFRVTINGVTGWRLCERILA
From the text for NanoLuc luciferase: Example 6 refers to FIG. 11 and introduces the Luke-S1 reporter cell line, which is based on a modified NanoLuc complementation system (Dixon, et al. ACS Chem Biol (2016) 11(2): 400-8). […] Luke-S1 is targeted to the mitochondrial inner membrane by an 86 amino acid portion of OPA1's c-terminus with the protein sequence SEQ ID NO: 27 and the DNA sequence SEQ ID NO:28. A reporter in which the S1 site was replaced by a TEV cleavage site (referred to as ‘Luke-TEV’) and the native NanoLuc enzyme (referred to as ‘Luke’) served as controls.

Turning to `N#CC(C#N)=NNc1cccc(Cl)c1` [CCCP, carbonyl cyanide m-chlorophenyl hydrazone], at OMA1 protease [1], the “Luke-S1 reporter cleavage in Western blots” value was “induced cleavage of the Luke-S1 reporter” and the “Luke-TEV reporter cleavage in Western blots” value is given as “cleaved”. Also, on OMA1 protease [1] (10 μM CCCP, 30 minutes), the “processing of reporter #01 in Western blot” value is on record as “led to processing” and the “processing of reporter #15 in Western blot” value is listed as “led to processing”. Besides, the “OPA1 hydrolysis in Western blots” value with L-OPA1 (3 μM CCCP) is “complete disappearance of L-OPA1 isoforms; also recorded: complete L-OPA1 proteolysis”. Moreover, at OMA1 protease [2] (10 μM CCCP, 30 minutes), the “bioluminescence signal of reporter #01” value is “significantly reduced”. On OMA1 protease [2], the “bioluminescence of reporter #01 (mitochondrial toxicity)” value is given as “significantly reduced bioluminescence”.

The term EC50 denotes the concentration at which the effect is half-maximal. For the compound `COC1=CC(=O)O[C@@H](/C=C/c2ccccc2)C1` [kavain, Kavain], the concentration for a half-maximal effect (EC50) at OMA1 protease [3] was determined as 14 µM. In other words, the double-digit micromolar range.

For the compound `c1cnc2c(c1)ccc1cccnc12` [phenanthroline], at OMA1 protease [4], the “bioluminescence signal of reporter #15 after pretreatment” value is “prevented reporter #15 deactivation and maintained the bioluminescence signal; also recorded: largely preserved”.

`CCC[C@@]1(CCc2ccccc2)CC(O)=C([C@H](CC)c2cccc(NS(=O)(=O)c3ccc(C(F)(F)F)cn3)c2)C(=O)O1` [tipranavir]: on OMA1 protease [2], the “bioluminescence of reporter #01 (mitochondrial toxicity)” value is listed as “deactivated; also recorded: significantly reduced bioluminescence”. The compound also gave a 50% effective concentration (EC50) on OMA1 protease [3] of 9 µM.

Regarding `CC(C)[C@@H]1NC(=O)[C@H](C)OC(=O)[C@@H](C(C)C)NC(=O)[C@@H](C(C)C)OC(=O)[C@H](C(C)C)NC(=O)[C@H](C)OC(=O)[C@@H](C(C)C)NC(=O)[C@@H](C(C)C)OC(=O)[C@H](C(C)C)NC(=O)[C@H](C)OC(=O)[C@@H](C(C)C)NC(=O)[C@@H](C(C)C)OC1=O` [valinomycin], the “Luke-S1 reporter cleavage in Western blots” value on OMA1 protease [1] is on record as “induced cleavage of the Luke-S1 reporter”. Besides, the “Luke-TEV reporter cleavage in Western blots” value at OMA1 protease [1] is on record as “cleaved”. For the same compound, the “real-time bioluminescence versus cells without valinomycin” value is given as “no notable differences” on NanoLuc luciferase (Luke, 100 nM valinomycin added with luciferase substrate, after 10 minutes); “marked signal reduction from the start of the measurement” at OMA1 protease [3] (Luke-S1, 100 nM valinomycin added with luciferase substrate, 25 minutes); “much smaller difference” on OMA1 protease [6] (Luke-TEV, 100 nM valinomycin added with luciferase substrate). In addition, the “effect on Luke bioluminescence” value at NanoLuc luciferase (dose-response, 30 minutes) is “no effects”. For the same compound, the “half maximal effective concentration (EC50)” value was “low nanomolar range” at OMA1 protease [5] (reporter #15-S1, 30 minutes) and “low nanomolar range” at OMA1 protease [5] (reporter #15-TEV, 30 minutes). In addition, the “OPA1 hydrolysis in Western blots” value with L-OPA1 (0.1 μM (100 nM) valinomycin) is reported as “sufficed for OPA1 cleavage; also recorded: complete L-OPA1 proteolysis”. This compound returned a concentration giving a half-maximal response (EC50) on OMA1 protease [3] of 0.0176 µM. In addition, at OMA1 protease [3] (100 nM valinomycin, 30 minutes), the “Luke-S1 signal, cells transfected with OMA1 siRNA” value is given as “no significant signal reduction”. Also, on OMA1 protease [3] (100 nM valinomycin, 30 minutes), the “Luke-S1 signal, cells transfected with control siRNA” value is reported as “significant signal reduction”. At OMA1 protease [3] (valinomycin treated controls of the cancer drug screen, untreated = 100%), the “signal intensity normalized to untreated cells” value was determined as 18.5%. Besides, the “effect on Luke-TEV signal” value at OMA1 protease [6] (dose-response, 30 minutes) was “only a minor signal reduction”.

(Values after patent US20240011070A1, “METHODS AND COMPOSITIONS FOR PROTEASE REPORTER ASSAYS AND MODULATORS” (712 North Inc., priority 2020, published 2024).)
